{"source": "ChEMBL document CHEMBL1158197", "about": "“A new prenylated flavonol from the root of Petalostemon purpureus” (1996)", "key": {"SK-MEL-2": {"tested_on": "SK-MEL-2", "test": "Cytotoxicity against human SK-MEL-2 cells", "assay_type": "functional", "conditions": "read-out: ED50 (the source's name)"}, "HT": {"tested_on": "HT", "test": "Cytotoxicity against human HT cells", "assay_type": "functional", "conditions": "read-out: ED50 (the source's name)"}, "Betapolyomavirus macacae [1]": {"tested_on": "Betapolyomavirus macacae", "test": "Induction of DNA-strand scission activity in SV40 form 1 DNA at 25 ug/mL"}, "KB": {"tested_on": "KB", "test": "Cytotoxicity against human KB cells", "assay_type": "functional", "conditions": "read-out: ED50 (the source's name)"}, "[2]": {"test": "Cytotoxicity against human BC1 cells", "assay_type": "functional", "conditions": "read-out: ED50 (the source's name)"}, "[3]": {"test": "Cytotoxicity against human U373 cells", "assay_type": "functional, U-373MG ATCC", "conditions": "U373 MG, read-out: ED50 (the source's name)"}, "Lu1": {"tested_on": "Lu1", "test": "Cytotoxicity against human Lu1 cells", "assay_type": "functional", "conditions": "read-out: ED50 (the source's name)"}, "A-431": {"tested_on": "A-431", "test": "Cytotoxicity against human A431 cells", "assay_type": "functional", "conditions": "read-out: ED50 (the source's name)"}, "LNCaP": {"tested_on": "LNCaP", "test": "Cytotoxicity against human LNCAP cells", "assay_type": "functional", "conditions": "read-out: ED50 (the source's name)"}, "ZR-75-1": {"tested_on": "ZR-75-1", "test": "Cytotoxicity against human ZR-75-1 cells", "assay_type": "functional", "conditions": "read-out: ED50 (the source's name)"}, "Col2": {"tested_on": "Col2", "test": "Cytotoxicity against human Col2 cells", "assay_type": "functional", "conditions": "read-out: ED50 (the source's name)"}, "[4]": {"test": "Cytotoxicity against human KBVIN cells in presence of vinblastine", "assay_type": "functional", "conditions": "read-out: ED50 (the source's name)"}, "[5]": {"test": "Cytotoxicity against human KBVIN cells in absence of vinblastine", "assay_type": "functional", "conditions": "read-out: ED50 (the source's name)"}, "Betapolyomavirus macacae [6]": {"tested_on": "Betapolyomavirus macacae", "test": "Induction of DNA-strand scission activity in SV40 form 1 DNA at 0.1 ug/mL"}}, "note": "Activity calls are given as the source filed them. No cut-off for these calls is given here.", "data": [{"compound": "CC(C)=CCCC1(C)C=Cc2c(-c3oc4cc(O)cc(O)c4c(=O)c3O)ccc(O)c2O1", "note": "(configuration not stated) [PETALOPURPURENOL]", "values": [{"measurement": "EC50", "setting": "SK-MEL-2", "value": 17.1, "unit": "µg/mL"}, {"measurement": "EC50", "setting": "HT", "value": 7.3, "unit": "µg/mL"}, {"measurement": "Activity", "setting": "Betapolyomavirus macacae [1]", "value": "inactive"}, {"measurement": "EC50", "setting": "KB", "value": 18.9, "unit": "µg/mL"}, {"measurement": "EC50", "setting": "[2]", "value": 9.9, "unit": "µg/mL"}, {"measurement": "EC50", "setting": "[3]", "value": 13.3, "unit": "µg/mL"}, {"measurement": "EC50", "setting": "Lu1", "value": 14.8, "unit": "µg/mL"}, {"measurement": "EC50", "setting": "A-431", "value": 11.9, "unit": "µg/mL"}, {"measurement": "EC50", "setting": "LNCaP", "value": 14.8, "unit": "µg/mL"}, {"measurement": "EC50", "setting": "ZR-75-1", "value": 4.1, "unit": "µg/mL"}, {"measurement": "EC50", "setting": "Col2", "value": "> 20", "unit": "µg/mL"}, {"measurement": "EC50", "setting": "[4]", "value": 1, "unit": "µg/mL"}, {"measurement": "EC50", "setting": "[5]", "value": 6.7, "unit": "µg/mL"}]}, {"compound": "BLEOMYCIN SULFATE", "values": [{"measurement": "Activity", "setting": "Betapolyomavirus macacae [6]", "value": "Active"}]}, {"compound": "CC(C)=CCc1cc(O)c(O)c(CC=C(C)C)c1[C@H]1Oc2c(CC=C(C)C)c(O)cc(O)c2C(=O)[C@@H]1O", "note": "[PETALOSTEMUMOL]", "values": [{"measurement": "EC50", "setting": "SK-MEL-2", "value": "> 20", "unit": "µg/mL"}, {"measurement": "EC50", "setting": "HT", "value": 10.3, "unit": "µg/mL"}, {"measurement": "Activity", "setting": "Betapolyomavirus macacae [1]", "value": "Active"}, {"measurement": "EC50", "setting": "KB", "value": "> 20", "unit": "µg/mL"}, {"measurement": "EC50", "setting": "[2]", "value": "> 20", "unit": "µg/mL"}, {"measurement": "EC50", "setting": "[3]", "value": "> 20", "unit": "µg/mL"}, {"measurement": "EC50", "setting": "Lu1", "value": "> 20", "unit": "µg/mL"}, {"measurement": "EC50", "setting": "A-431", "value": "> 20", "unit": "µg/mL"}, {"measurement": "EC50", "setting": "LNCaP", "value": "> 20", "unit": "µg/mL"}, {"measurement": "EC50", "setting": "ZR-75-1", "value": 17.1, "unit": "µg/mL"}, {"measurement": "EC50", "setting": "Col2", "value": "> 20", "unit": "µg/mL"}, {"measurement": "EC50", "setting": "[4]", "value": 1.2, "unit": "µg/mL"}, {"measurement": "EC50", "setting": "[5]", "value": "> 20", "unit": "µg/mL"}]}]}
